Source: patent publication US20260069621A1, “Pentagalloyl glucose (PGG) for use in treatment of pulmonary hypertension” (Charité - Universitaetsmedizin Berlin, priority 2021, published 2026)

Columns and labels:
human PAs [1] = assay: Ex vivo culture of human PAs followed by uniaxial tensile test; conditions: 0.1% PGG
Description: Uniaxial tensile test. Following harvesting, human PA samples were kept in normal saline on ice and assessed for biomechanics within 2-4 h. […] Loose connective and adipose tissue were carefully removed, and sample dimensions (length and width) were measured using a digital caliper. The circumferential tensile properties of PAs were assessed using a MyoDynamics Muscle Strip Myograph System (840DM, Danish Myo Technology, Hinnerup, Denmark) with controlled temperature (37° C.) and aeration. To this end, circumferential rectangular sections (2×8 mm) were excised from the pulmonary trunk and mounted at 5 mm length. […] From force-displacement curves, the following parameters were derived: stiffness of elastin (k1)- and collagen (k2)-enriched arterial material (calculated as the slopes of the toe- and linear regions, respectively), with stiffness (k, mN/mm) reflecting the resistance to deformation (ΔF/ΔL) generated by the respective material, and the strain at which the transition of load-bearing elements from elastin to collagen occurred (εTrans), defined based on force-displacement curve characteristics as the strain applied when F reached 100 mN.
Effects of PGG on PA biomechanics. The effect of PGG on PA biomechanical properties was assessed by ex vivo culture of PA specimens followed by uniaxial tensile testing. […]

human PAs [2] = assay: Ex vivo culture of human PAs with or without elastase, EVG staining of elastic fibers
Description: Effects of PGG on PA biomechanics. The effect of PGG on PA biomechanical properties was assessed by ex vivo culture of PA specimens followed by uniaxial tensile testing. Freshly isolated PAs were handled under sterile conditions. One piece of the artery was excised and directly underwent uniaxial tensile testing to record PA biomechanics at baseline. The rest of the PA was prepared as 2×8-mm strips and placed in a 12-well plate for ex vivo culture in serum-free Dulbecco's modified Eagle's medium (DMEM, Gibco) supplied with penicillin-streptomycin (Thermo Fisher) at 37° C. with controlled humidity at 21% O2 and 5% CO2. PGG (penta-O-galloyl-β-D-glucose hydrate, Sigma-Aldrich) was dissolved in dimethyl sulfoxide (DMSO, Sigma-Aldrich) as a stock solution and added to the medium at a final concentration of 0.1%. […] The following four treatment conditions were tested: control, elastase only, PGG only and PGG prior to elastase. PGG treatment was performed for 1 h at 37° C. prior to culturing PAs for 24 h in the presence or absence of elastase. Control samples were incubated with the corresponding concentrations of DMSO. Histology. Human or rat PA samples were cryo-embedded in OCT Compound (Tissue-Tek) and sliced into 10 μm transverse sections on a Microm HM560 cryostat. […] EVG staining was quantified based on positively stained area on single-plane images using Fiji-ImageJ.

rat AAA model = conditions: local application; cited from earlier work
[3] = concentrations similar to 0.1%; cited from earlier work

SMILES: O=C(OC[C@H]1O[C@@H](OC(=O)c2cc(O)c(O)c(O)c2)[C@H](OC(=O)c2cc(O)c(O)c(O)c2)[C@@H](OC(=O)c2cc(O)c(O)c(O)c2)[C@@H]1OC(=O)c1cc(O)c(O)c(O)c1)c1cc(O)c(O)c(O)c1 [PGG, 1,2,3,4,6-Penta-O-galloyl-β-D-glucose]
- εTrans in uniaxial tensile tests (human PAs [1]; elastase-treated PAs): increased
- Load borne by elastic fibers (human PAs [1]; naïve PAs): increased the load borne by elastic fibers
- Elastic fibers (EVG staining) after elastase treatment (human PAs [2]; 0.1% PGG, 1 U porcine elastase for 24 h): partially preserved
- Elastin content (human PAs [2]; naïve PAs and PAs treated with elastase): increased elastin content
- Aneurysmal expansion (rat AAA model): reduce
- Elastic fiber degeneration (rat AAA model): effectively decrease
- Cytotoxicity [3]: minimal cytotoxicity
